Test results reported in ChEMBL document CHEMBL3991601, “The target landscape of clinical kinase drugs” (Science, 2017).
Activity calls are given as the source filed them. Cut-off read from the data, not from the text of the source, for most assays here: actives have a measured Kd and inactives only a lower limit.

Assays:
[1] = molecular target: T1, Serine/threonine-protein kinase A-Raf (Homo sapiens, UniProt P10398)
T1 sequence (P10398 whole entry): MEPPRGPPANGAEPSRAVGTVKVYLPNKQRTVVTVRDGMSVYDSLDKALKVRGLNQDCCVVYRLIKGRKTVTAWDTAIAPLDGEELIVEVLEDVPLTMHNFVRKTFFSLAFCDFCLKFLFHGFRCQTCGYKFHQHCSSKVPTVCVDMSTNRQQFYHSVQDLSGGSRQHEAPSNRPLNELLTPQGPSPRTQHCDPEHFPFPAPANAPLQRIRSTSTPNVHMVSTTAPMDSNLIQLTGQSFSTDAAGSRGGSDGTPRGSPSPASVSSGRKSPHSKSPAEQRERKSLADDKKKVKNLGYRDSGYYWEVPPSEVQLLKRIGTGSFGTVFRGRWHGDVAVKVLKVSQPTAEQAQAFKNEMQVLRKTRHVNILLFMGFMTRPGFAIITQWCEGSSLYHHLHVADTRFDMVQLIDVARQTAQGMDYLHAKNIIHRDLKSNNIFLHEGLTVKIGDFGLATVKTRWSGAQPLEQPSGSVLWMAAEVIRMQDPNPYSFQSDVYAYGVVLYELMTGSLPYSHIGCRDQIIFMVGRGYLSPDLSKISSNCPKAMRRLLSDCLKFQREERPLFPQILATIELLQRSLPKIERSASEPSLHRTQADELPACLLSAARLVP

[2] = molecular target: Calcium/calmodulin-dependent protein kinase type II subunit gamma (Homo sapiens, UniProt Q13555)
[3] = molecular target: Ephrin type-A receptor 4 (Homo sapiens, UniProt P54764)
[4] = molecular target: Tyrosine-protein kinase Fer (Homo sapiens, UniProt P16591)
[5] = molecular target: GTP-binding protein 4 (Homo sapiens, UniProt Q9BZE4)
[6] = molecular target: T2, Interleukin-1 receptor-associated kinase 3 (Homo sapiens, UniProt Q9Y616)
T2 sequence (Q9Y616 whole entry): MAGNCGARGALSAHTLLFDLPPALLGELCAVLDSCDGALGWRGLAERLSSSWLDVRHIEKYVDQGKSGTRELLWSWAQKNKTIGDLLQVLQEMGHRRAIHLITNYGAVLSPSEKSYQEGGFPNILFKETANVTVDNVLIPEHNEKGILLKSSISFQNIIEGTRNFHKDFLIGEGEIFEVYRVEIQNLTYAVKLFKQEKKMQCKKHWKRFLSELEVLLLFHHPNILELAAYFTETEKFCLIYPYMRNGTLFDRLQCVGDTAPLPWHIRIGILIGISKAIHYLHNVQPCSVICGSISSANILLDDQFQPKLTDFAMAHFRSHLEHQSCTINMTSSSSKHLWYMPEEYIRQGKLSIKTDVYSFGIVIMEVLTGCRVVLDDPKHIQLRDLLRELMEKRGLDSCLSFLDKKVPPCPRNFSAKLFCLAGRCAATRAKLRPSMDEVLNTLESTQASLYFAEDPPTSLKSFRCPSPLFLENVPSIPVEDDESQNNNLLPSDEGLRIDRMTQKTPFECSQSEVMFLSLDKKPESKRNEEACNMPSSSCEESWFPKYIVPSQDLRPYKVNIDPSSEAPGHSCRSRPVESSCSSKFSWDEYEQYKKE

[7] = molecular target: T3, Serine/threonine-protein kinase LATS1 (Homo sapiens, UniProt O95835)
T3 sequence (O95835 whole entry): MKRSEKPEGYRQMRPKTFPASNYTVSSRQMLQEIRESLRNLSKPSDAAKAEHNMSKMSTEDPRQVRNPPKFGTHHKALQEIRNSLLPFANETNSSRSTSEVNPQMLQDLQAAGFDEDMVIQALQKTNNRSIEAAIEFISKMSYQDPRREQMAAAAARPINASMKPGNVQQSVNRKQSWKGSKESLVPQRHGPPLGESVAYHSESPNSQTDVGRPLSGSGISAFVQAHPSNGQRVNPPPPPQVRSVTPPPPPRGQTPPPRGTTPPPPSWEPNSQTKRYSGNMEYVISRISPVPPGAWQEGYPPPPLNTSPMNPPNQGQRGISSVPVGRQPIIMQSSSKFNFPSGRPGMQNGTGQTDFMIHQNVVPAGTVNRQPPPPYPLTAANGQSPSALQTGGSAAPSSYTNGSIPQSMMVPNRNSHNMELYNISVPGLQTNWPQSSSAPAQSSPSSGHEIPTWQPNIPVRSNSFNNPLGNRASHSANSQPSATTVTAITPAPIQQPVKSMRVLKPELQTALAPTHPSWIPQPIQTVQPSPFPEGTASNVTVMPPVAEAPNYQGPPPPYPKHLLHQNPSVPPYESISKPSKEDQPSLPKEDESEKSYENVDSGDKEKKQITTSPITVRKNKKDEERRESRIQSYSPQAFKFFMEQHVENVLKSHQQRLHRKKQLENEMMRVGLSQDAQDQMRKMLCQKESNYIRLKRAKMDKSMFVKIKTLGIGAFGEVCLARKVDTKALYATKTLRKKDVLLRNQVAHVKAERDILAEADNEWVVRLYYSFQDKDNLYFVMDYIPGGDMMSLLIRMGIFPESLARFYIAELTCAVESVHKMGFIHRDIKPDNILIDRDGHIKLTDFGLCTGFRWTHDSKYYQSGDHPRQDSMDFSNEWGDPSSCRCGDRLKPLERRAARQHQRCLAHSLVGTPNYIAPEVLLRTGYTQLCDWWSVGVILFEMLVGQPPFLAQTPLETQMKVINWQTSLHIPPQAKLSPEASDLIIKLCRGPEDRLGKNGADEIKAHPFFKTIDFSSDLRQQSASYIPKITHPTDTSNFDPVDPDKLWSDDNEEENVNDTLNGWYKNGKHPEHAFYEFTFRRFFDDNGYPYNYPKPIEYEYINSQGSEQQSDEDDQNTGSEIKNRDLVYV

[8] = molecular target: Mitogen-activated protein kinase 8 (Homo sapiens, UniProt P45983)
[9] = molecular target: Serine/threonine-protein kinase pim-1 (Homo sapiens, UniProt P11309)
[10] = molecular target: Receptor-interacting serine/threonine-protein kinase 2 (Homo sapiens, UniProt O43353)
[11] = molecular target: Serine/threonine-protein kinase 10 (Homo sapiens, UniProt O94804)
[12] = molecular target: TGF-beta receptor type-2 (Homo sapiens, UniProt P37173)
Note: in the data inactive means no Kd found up to 30 µM.

Ephrin type-A receptor 4, sequence (P54764 whole entry): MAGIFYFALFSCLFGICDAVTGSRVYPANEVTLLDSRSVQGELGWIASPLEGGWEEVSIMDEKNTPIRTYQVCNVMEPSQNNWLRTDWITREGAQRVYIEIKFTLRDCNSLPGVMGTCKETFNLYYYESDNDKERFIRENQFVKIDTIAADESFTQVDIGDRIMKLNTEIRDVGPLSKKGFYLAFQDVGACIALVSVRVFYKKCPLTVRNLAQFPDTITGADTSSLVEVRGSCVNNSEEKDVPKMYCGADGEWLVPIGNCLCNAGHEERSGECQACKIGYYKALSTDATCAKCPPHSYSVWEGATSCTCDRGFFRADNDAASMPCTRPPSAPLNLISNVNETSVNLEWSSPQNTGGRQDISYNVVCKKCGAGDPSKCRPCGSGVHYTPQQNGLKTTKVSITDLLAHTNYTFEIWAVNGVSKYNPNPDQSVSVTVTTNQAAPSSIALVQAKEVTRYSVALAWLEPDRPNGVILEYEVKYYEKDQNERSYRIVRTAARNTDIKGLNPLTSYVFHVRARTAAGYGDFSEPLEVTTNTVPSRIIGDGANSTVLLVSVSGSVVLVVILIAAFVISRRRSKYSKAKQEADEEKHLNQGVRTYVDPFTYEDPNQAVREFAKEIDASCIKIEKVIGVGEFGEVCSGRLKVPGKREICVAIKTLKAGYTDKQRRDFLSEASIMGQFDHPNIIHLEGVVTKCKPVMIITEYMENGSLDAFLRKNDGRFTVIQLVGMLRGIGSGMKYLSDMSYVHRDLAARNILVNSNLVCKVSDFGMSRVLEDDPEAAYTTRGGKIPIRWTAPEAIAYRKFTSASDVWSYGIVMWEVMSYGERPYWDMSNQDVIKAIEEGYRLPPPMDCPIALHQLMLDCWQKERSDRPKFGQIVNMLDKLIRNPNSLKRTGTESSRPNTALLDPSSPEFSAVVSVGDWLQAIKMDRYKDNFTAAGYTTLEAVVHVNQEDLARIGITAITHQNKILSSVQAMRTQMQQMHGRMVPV
Serine/threonine-protein kinase pim-1, sequence (P11309 whole entry): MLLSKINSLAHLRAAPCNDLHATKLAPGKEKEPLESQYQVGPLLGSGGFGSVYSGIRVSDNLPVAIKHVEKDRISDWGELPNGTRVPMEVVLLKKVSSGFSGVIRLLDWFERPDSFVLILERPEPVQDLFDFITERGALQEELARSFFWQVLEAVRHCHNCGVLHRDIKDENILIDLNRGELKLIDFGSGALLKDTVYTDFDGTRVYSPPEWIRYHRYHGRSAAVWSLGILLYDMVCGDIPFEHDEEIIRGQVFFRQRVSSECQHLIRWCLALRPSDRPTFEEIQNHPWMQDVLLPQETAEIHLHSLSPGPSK
Mitogen-activated protein kinase 8, sequence (P45983 whole entry): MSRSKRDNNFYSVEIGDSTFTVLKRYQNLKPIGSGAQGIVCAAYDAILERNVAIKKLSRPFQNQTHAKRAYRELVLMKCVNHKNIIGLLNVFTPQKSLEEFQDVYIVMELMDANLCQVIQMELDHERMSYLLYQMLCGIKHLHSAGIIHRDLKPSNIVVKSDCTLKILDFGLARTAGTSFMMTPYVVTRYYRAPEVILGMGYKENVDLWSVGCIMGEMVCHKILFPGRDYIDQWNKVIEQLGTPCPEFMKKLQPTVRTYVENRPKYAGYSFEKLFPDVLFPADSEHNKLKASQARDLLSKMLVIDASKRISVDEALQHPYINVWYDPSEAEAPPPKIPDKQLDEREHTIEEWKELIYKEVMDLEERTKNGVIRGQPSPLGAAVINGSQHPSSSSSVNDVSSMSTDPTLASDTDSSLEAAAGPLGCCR
TGF-beta receptor type-2, sequence (P37173 whole entry): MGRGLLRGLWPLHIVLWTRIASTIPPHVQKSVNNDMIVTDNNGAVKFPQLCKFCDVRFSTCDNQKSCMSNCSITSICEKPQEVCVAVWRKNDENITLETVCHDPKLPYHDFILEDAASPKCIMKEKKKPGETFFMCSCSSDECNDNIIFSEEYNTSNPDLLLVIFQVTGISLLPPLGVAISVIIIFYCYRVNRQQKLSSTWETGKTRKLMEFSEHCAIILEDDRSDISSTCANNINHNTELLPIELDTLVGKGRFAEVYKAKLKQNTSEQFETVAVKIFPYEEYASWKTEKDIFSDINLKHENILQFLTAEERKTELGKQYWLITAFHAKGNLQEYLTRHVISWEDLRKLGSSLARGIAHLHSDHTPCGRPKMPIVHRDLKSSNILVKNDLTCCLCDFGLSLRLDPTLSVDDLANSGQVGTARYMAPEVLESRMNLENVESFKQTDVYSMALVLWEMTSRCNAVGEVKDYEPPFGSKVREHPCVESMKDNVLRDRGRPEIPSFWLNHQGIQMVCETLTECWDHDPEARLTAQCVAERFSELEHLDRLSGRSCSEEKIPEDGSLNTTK
Calcium/calmodulin-dependent protein kinase type II subunit gamma, sequence (Q13555 whole entry): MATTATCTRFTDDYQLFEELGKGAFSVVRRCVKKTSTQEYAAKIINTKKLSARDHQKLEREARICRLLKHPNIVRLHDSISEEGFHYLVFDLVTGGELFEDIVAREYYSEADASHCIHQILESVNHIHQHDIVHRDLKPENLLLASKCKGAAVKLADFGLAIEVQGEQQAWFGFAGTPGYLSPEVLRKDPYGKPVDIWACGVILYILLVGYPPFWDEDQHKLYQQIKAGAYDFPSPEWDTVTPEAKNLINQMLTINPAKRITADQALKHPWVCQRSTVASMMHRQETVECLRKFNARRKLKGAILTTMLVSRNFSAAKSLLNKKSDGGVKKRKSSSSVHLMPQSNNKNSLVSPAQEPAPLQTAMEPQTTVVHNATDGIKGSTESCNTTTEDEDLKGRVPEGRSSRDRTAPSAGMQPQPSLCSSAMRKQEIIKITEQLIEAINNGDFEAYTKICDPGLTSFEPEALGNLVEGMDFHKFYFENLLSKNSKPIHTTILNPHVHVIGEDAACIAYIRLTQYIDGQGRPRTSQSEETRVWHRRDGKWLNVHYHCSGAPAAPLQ
Receptor-interacting serine/threonine-protein kinase 2, sequence (O43353 whole entry): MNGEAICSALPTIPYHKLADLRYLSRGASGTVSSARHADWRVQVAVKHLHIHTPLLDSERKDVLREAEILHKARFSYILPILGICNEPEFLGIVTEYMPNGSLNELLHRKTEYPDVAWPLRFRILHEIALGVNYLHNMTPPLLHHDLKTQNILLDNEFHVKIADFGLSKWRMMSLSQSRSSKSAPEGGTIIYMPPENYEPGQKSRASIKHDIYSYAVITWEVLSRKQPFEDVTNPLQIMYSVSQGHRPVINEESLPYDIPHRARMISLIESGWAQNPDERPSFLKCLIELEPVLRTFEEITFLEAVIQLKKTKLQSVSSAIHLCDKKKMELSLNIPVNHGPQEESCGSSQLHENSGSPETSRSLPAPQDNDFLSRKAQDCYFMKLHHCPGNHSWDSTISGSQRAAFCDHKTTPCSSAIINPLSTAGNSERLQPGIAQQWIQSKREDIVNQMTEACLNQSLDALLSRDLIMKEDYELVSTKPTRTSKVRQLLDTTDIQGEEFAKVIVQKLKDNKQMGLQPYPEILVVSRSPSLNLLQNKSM
Tyrosine-protein kinase Fer, sequence (P16591 whole entry): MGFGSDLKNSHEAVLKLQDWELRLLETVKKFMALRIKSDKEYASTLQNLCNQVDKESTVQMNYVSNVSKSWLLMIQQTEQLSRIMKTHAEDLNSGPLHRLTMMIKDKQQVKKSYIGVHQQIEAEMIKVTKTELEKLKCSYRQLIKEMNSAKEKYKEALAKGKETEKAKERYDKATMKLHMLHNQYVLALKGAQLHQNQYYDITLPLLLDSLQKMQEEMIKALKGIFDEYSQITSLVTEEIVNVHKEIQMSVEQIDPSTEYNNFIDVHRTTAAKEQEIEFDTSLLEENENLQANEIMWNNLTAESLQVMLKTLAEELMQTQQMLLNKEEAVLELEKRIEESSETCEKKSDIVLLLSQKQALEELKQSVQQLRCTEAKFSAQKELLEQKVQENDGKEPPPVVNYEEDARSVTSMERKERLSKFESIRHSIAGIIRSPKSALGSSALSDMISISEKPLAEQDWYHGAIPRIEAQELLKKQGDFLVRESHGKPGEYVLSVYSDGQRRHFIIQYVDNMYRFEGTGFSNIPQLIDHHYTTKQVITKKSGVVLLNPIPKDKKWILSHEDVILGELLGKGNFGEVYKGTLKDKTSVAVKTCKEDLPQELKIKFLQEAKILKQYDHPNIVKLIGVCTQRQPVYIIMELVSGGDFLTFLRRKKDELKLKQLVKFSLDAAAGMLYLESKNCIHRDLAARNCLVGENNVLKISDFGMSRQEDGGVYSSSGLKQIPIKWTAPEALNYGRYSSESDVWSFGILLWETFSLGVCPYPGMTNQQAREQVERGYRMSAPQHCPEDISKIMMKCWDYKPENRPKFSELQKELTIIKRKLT

Row | Structure (SMILES) | Kd [1] | Kd [2] | Kd [3] | Kd [4] | Kd [5] | Kd [6] | Kd [7] | Kd [8] | Kd [9] | Kd [10] | Kd [11] | Kd [12]
1 | Cc1ccc(NC(=O)c2ccc(CN3CC[C@H](N(C)C)C3)c(C(F)(F)F)c2)cc1Nc1nccc(-c2cncnc2)n1 [BAFETINIB] | 2.89 µM (active) | > 30 µM (inactive) | 1.98 µM (active) | > 30 µM (inactive) | > 30 µM (inactive) | > 30 µM (inactive) | > 30 µM (inactive) | > 30 µM (inactive) | > 30 µM (inactive) | 1.47 µM (active) | > 30 µM (inactive) | > 30 µM (inactive)
2 | COc1ccc(-c2ccc3c(N4CCOC[C@@H]4C)nc(N4CCOC[C@@H]4C)nc3n2)cc1CO [AZD-8055] | > 30 µM (inactive) | > 30 µM (inactive) | > 30 µM (inactive) | > 30 µM (inactive) | > 30 µM (inactive) | > 30 µM (inactive) | > 30 µM (inactive) | > 30 µM (inactive) | > 30 µM (inactive) | > 30 µM (inactive) | > 30 µM (inactive) | > 30 µM (inactive)
3 | Cc1ccc(-n2nc(C(C)(C)C)cc2NC(=O)NCc2cc(F)ccc2Oc2ccc3c(cnn3CCO)c2)cc1 [PEXMETINIB] | > 30 µM (inactive) | > 30 µM (inactive) | > 30 µM (inactive) | > 30 µM (inactive) | > 30 µM (inactive) | > 30 µM (inactive) | > 30 µM (inactive) | > 30 µM (inactive) | > 30 µM (inactive) | > 30 µM (inactive) | > 30 µM (inactive) | > 30 µM (inactive)
4 | CNC(=O)c1ccc(-c2cnc3ncc(Cc4ccc5ncccc5c4)n3n2)cc1F [CAPMATINIB] | > 30 µM (inactive) | > 30 µM (inactive) | > 30 µM (inactive) | > 30 µM (inactive) | > 30 µM (inactive) | > 30 µM (inactive) | > 30 µM (inactive) | > 30 µM (inactive) | > 30 µM (inactive) | > 30 µM (inactive) | > 30 µM (inactive) | > 30 µM (inactive)
5 | COc1cc(CCc2cc(NC(=O)c3ccc(N4C[C@@H](C)N[C@@H](C)C4)cc3)n[nH]2)cc(OC)c1 [AZD-4547] | > 30 µM (inactive) | > 30 µM (inactive) | > 30 µM (inactive) | > 30 µM (inactive) | > 30 µM (inactive) | > 30 µM (inactive) | > 30 µM (inactive) | > 30 µM (inactive) | > 30 µM (inactive) | > 30 µM (inactive) | > 30 µM (inactive) | > 30 µM (inactive)

Results, then the compound that gave them:

Row | Kd [1] | Kd [2] | Kd [3] | Kd [4] | Kd [5] | Kd [6] | Kd [7] | Kd [8] | Kd [9] | Kd [10] | Kd [11] | Kd [12] | Structure (SMILES)
6 | > 30 µM (inactive) | > 30 µM (inactive) | > 30 µM (inactive) | > 30 µM (inactive) | > 30 µM (inactive) | > 30 µM (inactive) | > 30 µM (inactive) | > 30 µM (inactive) | > 30 µM (inactive) | > 30 µM (inactive) | > 30 µM (inactive) | > 30 µM (inactive) | CC(C)Nc1cc(-c2c[nH]c(C(=O)N[C@H](CO)c3cccc(Cl)c3)c2)c(Cl)cn1 [ULIXERTINIB]
7 | > 30 µM (inactive) | > 30 µM (inactive) | > 30 µM (inactive) | > 30 µM (inactive) | > 30 µM (inactive) | > 30 µM (inactive) | > 30 µM (inactive) | > 30 µM (inactive) | > 30 µM (inactive) | > 30 µM (inactive) | > 30 µM (inactive) | > 30 µM (inactive) | CNC(=O)c1ccc(C)c(-n2c(C)cc(OCc3ccc(F)cc3F)c(Br)c2=O)c1 [PH-797804]
8 | > 30 µM (inactive) | > 30 µM (inactive) | > 30 µM (inactive) | 1.54 µM (active) | > 30 µM (inactive) | 0.024 µM (active) | > 30 µM (inactive) | 1.15 µM (active) | > 30 µM (inactive) | > 30 µM (inactive) | 1.09 µM (active) | > 30 µM (inactive) | O=C(O)[C@]1(Cc2cccc(Nc3nccs3)n2)CC[C@@H](Oc2cccc(Cl)c2F)CC1 [MK-5108]
